According to ChEMBL document CHEMBL5329182, “Design, Synthesis, anti-inflammatory activity Evaluation, preliminary exploration of the Mechanism, molecule Docking, and structure-activity relationship analysis of batatasin III analogs” (Bioorg Med Chem Lett, 2023):

Tests used:
[1] = Cytotoxicity against mouse RAW264.7 cells assessed as cell survival rate at 50 uM by MTT assay relative to control; assay type: toxicity, cell-based; conditions: read-out: Activity
[2] = test system: RAW264.7; test: Antiinflammatory activity against LPS-stimulated mouse RAW264.7 cells assessed as NO emission at 50 uM (reference value: 20.56 +/-0.06%); assay type: functional
[3] = test system: RAW264.7; test: Antiinflammatory activity against mouse RAW264.7 cells assessed as inhibition of NO release; assay type: functional, cell-based
[4] = test system: RAW264.7; test: Antiinflammatory activity against mouse RAW264.7 cells assessed as inhibition of NO production at 50 uM relative to control; assay type: functional
[5] = biological target: Transcription factor p65 (Mus musculus) (UniProt Q04207); test: Inhibition of p65 phosphorylation in LPS-stimulated mouse RAW264.7 cells by Western blot analysis; assay type: cell-based; conditions: dose 5-20 µM
[6] = test system: RAW264.7; test: Antiinflammatory activity against LPS-stimulated mouse RAW264.7 cells assessed as reduction in iNOS protein expression by Western blot analysis; assay type: functional, cell-based; conditions: dose 5-20 µM
[7] = test system: RAW264.7; test: Antiinflammatory activity against LPS-stimulated mouse RAW264.7 cells assessed as NO emission at 20 uM (reference value: 20.56 +/-0.06%); assay type: functional
[8] = Cytotoxicity against mouse RAW264.7 cells assessed as reduction in cell survival by MTT assay; assay type: toxicity, cell-based
[9] = test system: RAW264.7; test: Antiinflammatory activity against mouse RAW264.7 cells assessed as inhibition of NO production at 20 uM relative to control; assay type: functional
[10] = Cytotoxicity against mouse RAW264.7 cells assessed as cell survival rate at 20 uM by MTT assay relative to control; assay type: toxicity, cell-based; conditions: read-out: Activity
[11] = test system: RAW264.7; test: Antiinflammatory activity against LPS-stimulated mouse RAW264.7 cells assessed as reduction in beta-catenin protein expression by Western blot analysis; assay type: functional, cell-based; conditions: dose 5-20 µM

Sequence of Transcription factor p65 (Mus musculus) (Q04207 whole entry): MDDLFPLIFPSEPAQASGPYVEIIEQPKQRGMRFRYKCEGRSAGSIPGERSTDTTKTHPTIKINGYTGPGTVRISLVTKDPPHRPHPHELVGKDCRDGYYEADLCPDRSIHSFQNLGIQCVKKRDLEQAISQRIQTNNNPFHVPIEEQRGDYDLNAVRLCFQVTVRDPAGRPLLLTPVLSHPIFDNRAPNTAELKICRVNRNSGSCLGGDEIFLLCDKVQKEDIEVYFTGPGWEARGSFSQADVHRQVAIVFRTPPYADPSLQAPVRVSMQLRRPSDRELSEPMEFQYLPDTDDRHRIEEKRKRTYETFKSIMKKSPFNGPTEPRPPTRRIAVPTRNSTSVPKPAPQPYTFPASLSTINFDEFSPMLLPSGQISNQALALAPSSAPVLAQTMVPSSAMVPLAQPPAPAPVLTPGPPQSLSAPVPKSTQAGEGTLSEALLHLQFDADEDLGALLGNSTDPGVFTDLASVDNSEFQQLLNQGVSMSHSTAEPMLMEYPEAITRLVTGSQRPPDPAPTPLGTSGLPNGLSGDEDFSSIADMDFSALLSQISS

| Compound | viability at 50 µM [1] [%] | Activity [2] [µM] | IC50 [3] [µM] | inhibition at 50 µM [4] [%] | inhibition [5] | Activity [6] | Activity [7] [µM] | CC50 [8] [µM] | inhibition at 20 µM [9] [%] | viability at 20 µM [10] [%] | Activity [11] |
| --- | --- | --- | --- | --- | --- | --- | --- | --- | --- | --- | --- |
| COc1cc(CCc2cccc(C)c2)cc(OC)c1 | 109 | 16.28 | 58.3 | 20.9 | – | – | – | – | – | – | – |
| COc1cc(/C=C/c2ccc(C(C)(C)C)cc2)cc(OC)c1 | 99.3 | 17.68 | > 50 | 14 | – | – | – | – | – | – | – |
| CC(C)(C)c1cc(CCc2cc(O)cc(O)c2)cc(C(C)(C)C)c1 | – | – | 13 | – | Dose-Dependent Effect | Dose-Dependent Effect | 10.08 | 34.3 | 51 | 99.1 | Dose-Dependent Effect |
| COc1cc(CCc2cc(C(C)(C)C)cc(C(C)(C)C)c2)cc(OC)c1 | 114 | 16.82 | > 50 | 18.2 | – | – | – | – | – | – | – |
| COc1cc(CCc2ccccc2)cc(OC)c1 | 99.5 | 19.3 | > 50 | 6.16 | – | – | – | – | – | – | – |
| COc1cccc(/C=C/c2cc(OC)cc(OC)c2)c1 | 97.2 | 16.82 | > 50 | 18.2 | – | – | – | – | – | – | – |
| COc1cc(CCc2ccc(C(C)(C)C)cc2)cc(OC)c1 | 106 | 17.5 | > 50 | 14.9 | – | – | – | – | – | – | – |
| COc1cc(CCc2cccnc2)cc(OC)c1 | 97.8 | 17.72 | > 50 | 13.8 | – | – | – | – | – | – | – |
| COc1cc(/C=C/c2cc(C(C)(C)C)cc(C(C)(C)C)c2)cc(OC)c1 | 104 | 17.02 | > 50 | 17.2 | – | – | – | – | – | – | – |
| COc1cc(CCc2cccc(N)c2)cc(OC)c1 | 104 | 15.2 | 55.4 | 26.1 | – | – | – | – | – | – | – |
| COc1cc(/C=C/c2cccc([N+](=O)[O-])c2)cc(OC)c1 | 104 | 17.5 | > 50 | 14.9 | – | – | – | – | – | – | – |
| COc1cc(/C=C/c2cccc(C#N)c2)cc(OC)c1 | 114 | 18.22 | > 50 | 11.4 | – | – | – | – | – | – | – |
| COc1cc(O)cc(CCc2cccc(O)c2)c1 [BATATASIN III] | 106 | 16.14 | > 50 | 21.5 | – | – | – | – | – | – | – |
| COc1cc(/C=C/c2cccc(C(F)(F)F)c2)cc(OC)c1 | 109 | 17.66 | > 50 | 14.1 | – | – | – | – | – | – | – |
| Oc1cccc(CCc2cc(O)cc(O)c2)c1 | 110 | 14.12 | 48.2 | 31.4 | – | – | – | – | – | – | – |
| Oc1cc(O)cc(CCc2ccccc2)c1 [DIHYDROPINOSYLVIN] | 102 | 16.86 | > 50 | 18 | – | – | – | – | – | – | – |
| COc1cc(CCc2cccc(C(F)(F)F)c2)cc(OC)c1 | 103 | 16.54 | > 50 | 19.6 | – | – | – | – | – | – | – |
| Oc1cc(O)cc(CCc2cccnc2)c1 | 98.9 | 18.06 | > 50 | 12.2 | – | – | – | – | – | – | – |
| Oc1cccc(/C=C/c2cc(O)cc(O)c2)c1 | 110 | 15.88 | 54 | 22.8 | – | – | – | – | – | – | – |
| COc1cc(CCc2ccco2)cc(OC)c1 | 103 | 21.18 | > 50 | -2.98 | – | – | – | – | – | – | – |
| CC(C)(C)c1ccc(CCc2cc(O)cc(O)c2)cc1 | 106 | 9.74 | 23.7 | 52.6 | – | – | – | – | – | – | – |
| O=[N+]([O-])c1cccc(/C=C/c2cc(O)cc(O)c2)c1 | 104 | 15.32 | 44.5 | 25.5 | – | – | – | – | – | – | – |
| COc1cc(/C=C/c2cccnc2)cc(OC)c1 | 97.7 | 15.94 | > 50 | 22.5 | – | – | – | – | – | – | – |
| COc1cc(/C=C/c2cccc(Cl)c2)cc(OC)c1 | 97.8 | 18.96 | > 50 | 7.82 | – | – | – | – | – | – | – |
| C[C@@H]1C[C@H]2[C@@H]3CCC4=CC(=O)C=C[C@]4(C)[C@@]3(F)[C@@H](O)C[C@]2(C)[C@@]1(O)C(=O)CO [DEXAMETHASONE] | 107 | 15.05 | > 50 | 26.9 | – | – | – | – | – | – | – |
| COc1cc(CCc2cccc(C#N)c2)cc(OC)c1 | 105 | 21.8 | > 50 | -5.99 | – | – | – | – | – | – | – |
